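Dose response: 5 concentrations. Exposure: 48 h. Format: 96-well plates. Endpoint: linear interpolation; highest concentration if not reached. TGI marks complete inhibition of growth.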
Key:
Assay in all cases: NCI-60 cell line screen, 48 h
MCF7 breast = tested on: MCF7 breast
UO-31 renal = tested on: UO-31 renal
DU-145 prostate = tested on: DU-145 prostate
EKVX NSCLC = tested on: EKVX NSCLC
SK-OV-3 ovarian = tested on: SK-OV-3 ovarian
NCI/ADR-RES ovarian = tested on: NCI/ADR-RES ovarian
OVCAR-4 ovarian = tested on: OVCAR-4 ovarian
SK-MEL-2 melanoma = tested on: SK-MEL-2 melanoma
SN12C renal = tested on: SN12C renal
786-0 renal = tested on: 786-0 renal
UACC-257 melanoma = tested on: UACC-257 melanoma
SK-MEL-28 melanoma = tested on: SK-MEL-28 melanoma
LOX IMVI melanoma = tested on: LOX IMVI melanoma
HCC-2998 colon = tested on: HCC-2998 colon
SF-268 CNS = tested on: SF-268 CNS
CCRF-CEM leukemia = tested on: CCRF-CEM leukemia
HCT-15 colon = tested on: HCT-15 colon
NCI-H460 lung = tested on: NCI-H460 lung
MOLT-4 leukemia = tested on: MOLT-4 leukemia
U251 CNS = tested on: U251 CNS
HT29 colon = tested on: HT29 colon
NCI-H522 lung = tested on: NCI-H522 lung
RPMI-8226 leukemia = tested on: RPMI-8226 leukemia
RXF 393 renal = tested on: RXF 393 renal
CAKI-1 renal = tested on: CAKI-1 renal
IGROV1 ovarian = tested on: IGROV1 ovarian
SR leukemia = tested on: SR leukemia
PC-3 prostate = tested on: PC-3 prostate
SK-MEL-5 melanoma = tested on: SK-MEL-5 melanoma
BT-549 breast = tested on: BT-549 breast
HOP-62 NSCLC = tested on: HOP-62 NSCLC
A549 NSCLC = tested on: A549 NSCLC
ACHN renal = tested on: ACHN renal
K-562 leukemia = tested on: K-562 leukemia
UACC-62 melanoma = tested on: UACC-62 melanoma
HL-60(TB) leukemia = tested on: HL-60(TB) leukemia
NCI-H23 lung = tested on: NCI-H23 lung
SF-539 CNS = tested on: SF-539 CNS
SNB-75 CNS = tested on: SNB-75 CNS
HOP-92 NSCLC = tested on: HOP-92 NSCLC
M14 melanoma = tested on: M14 melanoma
COLO 205 colon = tested on: COLO 205 colon
SW-620 colon = tested on: SW-620 colon
HCT-116 colon = tested on: HCT-116 colon
T-47D breast = tested on: T-47D breast
OVCAR-8 ovarian = tested on: OVCAR-8 ovarian
MALME-3M melanoma = tested on: MALME-3M melanoma
OVCAR-5 ovarian = tested on: OVCAR-5 ovarian
SNB-19 CNS = tested on: SNB-19 CNS
TK-10 renal = tested on: TK-10 renal
NCI-H226 lung = tested on: NCI-H226 lung
KM12 colon = tested on: KM12 colon
MDA-MB-435 = tested on: MDA-MB-435
SF-295 CNS = tested on: SF-295 CNS
A498 renal = tested on: A498 renal
MDA-MB-231 breast = tested on: MDA-MB-231 breast
OVCAR-3 ovarian = tested on: OVCAR-3 ovarian
HS 578T breast = tested on: HS 578T breast

`CCCc1ccc(OCC(=O)N/N=C/c2c(-c3ccccc3)[nH]c3ccccc23)cc1` was tested, and the TGI (MCF7 breast) was 54.3 µM, the TGI (UO-31 renal) was greater than 100 µM and the TGI (DU-145 prostate) was greater than 100 µM. The TGI (EKVX NSCLC) was 92.8 µM, the TGI (SK-OV-3 ovarian) was greater than 100 µM and the TGI (NCI/ADR-RES ovarian) was 42.5 µM. For the same compound, the TGI (OVCAR-4 ovarian) was 42.7 µM, the TGI (SK-MEL-2 melanoma) was 15.3 µM and the TGI (SN12C renal) was 32.1 µM. It also gave a TGI (786-0 renal) of 35.7 µM, a TGI (UACC-257 melanoma) of 33.7 µM and a TGI (SK-MEL-28 melanoma) greater than 100 µM. It also gave a TGI (LOX IMVI melanoma) of 21.6 µM, a TGI (HCC-2998 colon) of 14.1 µM and a TGI (SF-268 CNS) greater than 100 µM. It also gave a TGI (CCRF-CEM leukemia) of 40.1 µM, a TGI (HCT-15 colon) of 59.8 µM and a TGI (NCI-H460 lung) of 22.7 µM. For the same compound, the TGI (MOLT-4 leukemia) was 30.4 µM, the TGI (U251 CNS) was 20.3 µM and the TGI (HT29 colon) was 29.8 µM. The TGI (NCI-H522 lung) was 82 µM, the TGI (RPMI-8226 leukemia) was 30.7 µM and the TGI (RXF 393 renal) was 28.8 µM. It also gave a TGI (CAKI-1 renal) greater than 100 µM, a TGI (IGROV1 ovarian) of 65.8 µM and a TGI (SR leukemia) of 23.1 µM. It also gave a TGI (PC-3 prostate) of 29.4 µM, a TGI (SK-MEL-5 melanoma) of 20.8 µM and a TGI (BT-549 breast) of 34 µM. The TGI (HOP-62 NSCLC) was 37.8 µM, the TGI (A549 NSCLC) was greater than 100 µM and the TGI (ACHN renal) was greater than 100 µM. It also gave a TGI (K-562 leukemia) of 23.1 µM, a TGI (UACC-62 melanoma) of 26.3 µM and a TGI (HL-60(TB) leukemia) of 23.8 µM. For the same compound, the TGI (NCI-H23 lung) was 38.2 µM, the TGI (SF-539 CNS) was 42.5 µM and the TGI (SNB-75 CNS) was 58.6 µM. For the same compound, the TGI (HOP-92 NSCLC) was 35.3 µM, the TGI (M14 melanoma) was 28.2 µM and the TGI (COLO 205 colon) was 14.3 µM. It also gave a TGI (SW-620 colon) greater than 100 µM, a TGI (HCT-116 colon) of 27.7 µM and a TGI (T-47D breast) of 52.4 µM. It also gave a TGI (OVCAR-8 ovarian) of 53.4 µM, a TGI (MALME-3M melanoma) greater than 100 µM and a TGI (OVCAR-5 ovarian) of 58.6 µM. For the same compound, the TGI (SNB-19 CNS) was greater than 100 µM, the TGI (TK-10 renal) was 63.8 µM and the TGI (NCI-H226 lung) was 40.5 µM. For the same compound, the TGI (KM12 colon) was 38.5 µM, the TGI (MDA-MB-435) was 8.74 µM and the TGI (SF-295 CNS) was 34.4 µM. The TGI (A498 renal) was 31.8 µM, the TGI (MDA-MB-231 breast) was 28.9 µM and the TGI (OVCAR-3 ovarian) was 95.2 µM. The TGI (HS 578T breast) was greater than 100 µM.
